Measured values reported in publication PMC13184981, “Discovery and Development of a Potent LIMK2 Isoform-Specific Degrader” (ACS Chemical Biology, 2026).

Key:
[1] = molecular target: LIMK2 (Homo sapiens, UniProt P53671); assay: Western blot of endogenous LIMK2 in HuCCT1 cells; format: cell-based
Description: HuCCT1 cell line was cultured in Roswell Park Memorial Institute (RPMI) 1640 medium supplemented with GlutaMAX, 10% fetal bovine serum (FBS), and 1% penicillin/streptomycin. The cell line was maintained in an incubator with 5% CO2 at 37 °C. For the treatment, 3 × 10^5 cells were plated and treated with the compounds and DMSO as the control for 6 h. The cells were then lysed using RIPA buffer (50 mM Tris-HCl pH 7.4, 150 mM NaCl, 1% Triton X-100, 1% NaDOC, 0.1% SDS, 1 mM EDTA), freshly supplemented with protease and phosphatase inhibitor cocktails (Sigma-Aldrich, Darmstadt, Germany). After 1 h incubation on ice, the lysates were centrifuged for 30 min at […], and the protein-containing supernatant was collected. The protein concentrations were determined using Protein Assay Dye Reagent Concentrate (Bradford, Bio-Rad, Hercules, CA, USA) and Pre-Diluted Protein Assay Standards: Bovine Serum Albumin (BSA) Set (Thermo Fisher Scientific, Darmstadt, Germany). Then, equal amounts of protein was mixed with Roti-Load 1 dye (Carl Roth, Karlsruhe, Germany) and 4x Laemmli Buffer (Bio-Rad, Hercules, CA, USA), denatured at 95 °C, and run on NuPAGE 4–12% bis-Tris gels (Thermo Fisher Scientific). Proteins were blotted on methanol-activated PVDF Transfer Membranes (Thermo Fisher Scientific) using the wet transfer method with the transfer buffer (Thermo Fisher Scientific) and 20% methanol. Afterward, the membranes were blocked with 5% milk or 3% BSA in 0.1% TBS-T for 1 h at RT and incubated overnight at 4 °C with primary antibodies: GAPDH (catalog no. 2118, Cell Signaling Technology, MA, USA, 1:1000 dilution), LIMK1 (catalog no. 3842, Cell Signaling Technology, 1:1000 dilution), LIMK2 (catalog no. 3845, 1:500 dilution), phospho-Cofilin (catalog no. 3313, Cell Signaling Technology, 1:1000 dilution), Cofilin (catalog no. 5175, Cell Signaling Technology, 1:1000 dilution). Then, the membranes were washed with 0.1% TBS-T and incubated with secondary horseradish-peroxidase (HRP)-conjugated antibody for 2 h (catalog no. 7074, Cell Signaling Technology, 1:3000 dilution). The membranes were washed again with 0.1% TBS-T before they were developed using X-ray films (Fujifilm, Dusseldorf, Germany).

[2] = molecular target: T1, LIMK1 (Homo sapiens, UniProt P53667); assay: Western blot of endogenous LIMK1 in HuCCT1 cells; format: cell-based; details: HuCCT1, 6 h treatment
T1 construct: host or cells: HEK293T
T1 sequence (P53667 whole entry): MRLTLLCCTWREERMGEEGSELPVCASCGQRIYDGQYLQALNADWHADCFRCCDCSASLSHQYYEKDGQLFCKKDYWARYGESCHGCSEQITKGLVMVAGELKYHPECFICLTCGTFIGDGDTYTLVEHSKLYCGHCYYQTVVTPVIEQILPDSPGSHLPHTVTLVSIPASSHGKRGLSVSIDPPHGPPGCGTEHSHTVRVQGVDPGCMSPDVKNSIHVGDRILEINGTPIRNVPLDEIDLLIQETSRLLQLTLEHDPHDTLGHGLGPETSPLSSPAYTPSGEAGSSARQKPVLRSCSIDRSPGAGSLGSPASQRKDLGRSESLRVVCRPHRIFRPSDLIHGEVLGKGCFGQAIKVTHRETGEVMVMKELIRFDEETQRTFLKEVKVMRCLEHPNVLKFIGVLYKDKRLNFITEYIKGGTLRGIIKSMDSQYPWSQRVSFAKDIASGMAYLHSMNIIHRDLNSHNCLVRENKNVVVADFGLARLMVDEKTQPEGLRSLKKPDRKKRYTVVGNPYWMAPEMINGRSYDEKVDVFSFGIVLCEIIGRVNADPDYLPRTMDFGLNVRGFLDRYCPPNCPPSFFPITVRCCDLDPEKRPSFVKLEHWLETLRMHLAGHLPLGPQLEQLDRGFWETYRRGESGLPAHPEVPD
Description: (§1) HuCCT1 cell line was cultured in Roswell Park Memorial Institute (RPMI) 1640 medium supplemented with GlutaMAX, 10% fetal bovine serum (FBS), and 1% penicillin/streptomycin. The cell line was maintained in an incubator with 5% CO2 at 37 °C. For the treatment, 3 × 10^5 cells were plated and treated with the compounds and DMSO as the control for 6 h. The cells were then lysed using RIPA buffer (50 mM Tris-HCl pH 7.4, 150 mM NaCl, 1% Triton X-100, 1% NaDOC, 0.1% SDS, 1 mM EDTA), freshly supplemented with protease and phosphatase inhibitor cocktails (Sigma-Aldrich, Darmstadt, Germany). After 1 h incubation on ice, the lysates were centrifuged for 30 min at […], and the protein-containing supernatant was collected. The protein concentrations were determined using Protein Assay Dye Reagent Concentrate (Bradford, Bio-Rad, Hercules, CA, USA) and Pre-Diluted Protein Assay Standards: Bovine Serum Albumin (BSA) Set (Thermo Fisher Scientific, Darmstadt, Germany). Then, equal amounts of protein was mixed with Roti-Load 1 dye (Carl Roth, Karlsruhe, Germany) and 4x Laemmli Buffer (Bio-Rad, Hercules, CA, USA), denatured at 95 °C, and run on NuPAGE 4–12% bis-Tris gels (Thermo Fisher Scientific). Proteins were blotted on methanol-activated PVDF Transfer Membranes (Thermo Fisher Scientific) using the wet transfer method with the transfer buffer (Thermo Fisher Scientific) and 20% methanol. […]

[3] = system: phospho-Cofilin (pCFL); assay: Western blot of phospho-cofilin in HuCCT1 cells; format: cell-based, human; details: HuCCT1, 6 h
Description: as §1

[4] = system: CFL1, CFL2 and DSTN phosphorylation; assay: Phospho-proteomics; format: cell-based, human; details: HuCCT1, 500 nM, 6 h
Description: Cells were lysed in SDS-lysis buffer (50 mM Tris, pH 8.5, 2% SDS, 10 mM TCEP, 40 mM chloroacetamide, protease inhibitor cocktail, phosphatase inhibitor) and boiled at 95 °C for 10 min. Proteins were precipitated using methanol-chloroform and resuspended in 8 M urea, 50 mM Tris, pH 8.5. Proteins were digested with 1:50 w/w LysC (Wako Chemicals, cleaves at the carboxylic side of lysine residue) and 1:100 w/w trypsin (Promega, Sequencing-grade) overnight at 37 °C after dilution to a final urea concentration of 1 M using 50 mM Tris pH 8.5. Digested peptides were then acidified (pH 2–3) using trifluoroacetic acid (TFA) and purified using C18 SepPak columns (Waters). […]
Tryptic peptides were analyzed on an Orbitrap Lumos coupled to an easy nLC 1200 (ThermoFisher Scientific) using a 35 cm long, 75 μm ID fused-silica column packed in-house with 1.9 μm C18 particles (Reprosil pur, Dr. Maisch), and kept at 50 °C using an integrated column oven (Sonation). […] MS2 scans for quantification were performed on the 10 most intense MS ions with an isolation window of 0.7 Th. Ions were fragmented using HCD with a normalized collision energy of 35% and analyzed in the Orbitrap with a resolution of 50,000 at m/z 200, scan range of 100–500 m/z, AGC target value of 1 × 10^5, and a maximum injection time of 86 ms. […]
MS raw data were analyzed using MaxQuant (2.4.2.0). […]

Chain of LIMK2 (P53671 whole entry): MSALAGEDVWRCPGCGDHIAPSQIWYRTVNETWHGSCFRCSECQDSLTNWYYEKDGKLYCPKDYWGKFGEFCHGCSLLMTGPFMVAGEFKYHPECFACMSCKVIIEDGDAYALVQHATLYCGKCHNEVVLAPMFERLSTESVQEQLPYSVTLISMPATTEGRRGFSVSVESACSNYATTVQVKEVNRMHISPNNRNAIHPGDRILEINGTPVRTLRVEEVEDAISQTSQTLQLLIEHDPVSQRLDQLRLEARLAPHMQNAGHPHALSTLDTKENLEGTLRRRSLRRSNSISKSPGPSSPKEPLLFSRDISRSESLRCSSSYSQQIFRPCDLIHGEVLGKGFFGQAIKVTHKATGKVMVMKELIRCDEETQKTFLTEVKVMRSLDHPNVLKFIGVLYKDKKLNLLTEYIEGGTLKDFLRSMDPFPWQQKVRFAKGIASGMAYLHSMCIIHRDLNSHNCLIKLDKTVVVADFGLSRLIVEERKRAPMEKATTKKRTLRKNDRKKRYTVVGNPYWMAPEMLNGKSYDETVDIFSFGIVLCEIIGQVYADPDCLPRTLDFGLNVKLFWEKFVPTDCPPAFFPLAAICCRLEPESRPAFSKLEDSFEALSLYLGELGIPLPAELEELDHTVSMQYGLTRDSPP

## Cc1c(OCc2cn(CCCCC(=O)Nc3ncc(-c4cc(C(F)F)nn4-c4c(Cl)cccc4Cl)s3)nn2)cccc1N1CCC(=O)NC1=O [22b]
[1]; HuCCT1, 6 h, Western blot
  concentration giving near-complete depletion of endogenous LIMK2: 10 nM
[1]; HuCCT1, 6 h treatment
  LIMK2 degradation (Western blot): strong LIMK2-selective degradation
[2]
  LIMK1 degradation (Western blot): LIMK1 protein levels remained unaffected
[3]
  pCFL levels (Western blot): no significant changes in pCFL
[4]
  phosphorylation of CFL1, CFL2 and DSTN: no significant change in phosphorylation
